± gives the standard deviation of the averaged measurements.
Experiments:
AFIMOXIFENE = compound: CC/C(=C(\c1ccc(O)cc1)c1ccc(OCCN(C)C)cc1)c1ccccc1 [AFIMOXIFENE]; assay: surviving fraction relative to DMSO-only wells; higher = less growth inhibition; conditions: exposure time: 5 days
Outline: (§1)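 Inhibitors were tested at 0.5, 1, 5, 10, 50, 100, 500 and 1000 nM, applied continuously for five days beginning 24 hours after log-phase tumour cells were seeded at 250–500 per well in 384-well plates. CellTiter-Glo luminescence served as the viability measure, expressed as surviving fraction against the median of DMSO-only wells. Each line, screened three times, was kept only with replicate Pearson r >0.7 and median Z' >0.3.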

MK-1775 = compound: C=CCn1c(=O)c2cnc(Nc3ccc(N4CCN(C)CC4)cc3)nc2n1-c1cccc(C(C)(C)O)n1 [MK-1775]; assay: as above; conditions: exposure time: 5 days
Outline: as §1

Test System	surviving fraction (AFIMOXIFENE; 0.5 nM)	surviving fraction (AFIMOXIFENE; 1 nM)	surviving fraction (AFIMOXIFENE; 5 nM)	surviving fraction (AFIMOXIFENE; 10 nM)	surviving fraction (AFIMOXIFENE; 50 nM)	surviving fraction (AFIMOXIFENE; 100 nM)	surviving fraction (AFIMOXIFENE; 500 nM)	surviving fraction (AFIMOXIFENE; 1000 nM)	surviving fraction (MK-1775; 0.5 nM)	surviving fraction (MK-1775; 1 nM)	surviving fraction (MK-1775; 5 nM)	surviving fraction (MK-1775; 10 nM)	surviving fraction (MK-1775; 50 nM)	surviving fraction (MK-1775; 100 nM)	surviving fraction (MK-1775; 500 nM)	surviving fraction (MK-1775; 1000 nM)
CCK81 LARGE INTESTINE	0.822 ± 0.1	0.889 ± 0.095	0.866 ± 0.083	0.822 ± 0.09	0.987 ± 0.24	0.749 ± 0.051	0.932 ± 0.04	0.82 ± 0.027	–	–	–	–	–	–	–	–
G292 BONE	1.02 ± 0.016	1.01 ± 0.011	0.98 ± 0.033	1.02 ± 0.013	0.9545 ± 0.0072	1.015 ± 0.0096	0.903 ± 0.036	0.931 ± 0.048	0.974 ± 0.034	0.946 ± 0.011	0.997 ± 0.018	1.03 ± 0.02	0.961 ± 0.032	0.821 ± 0.021	0.289 ± 0.014	0.216 ± 0.0088
HCC38 BREAST	1.19 ± 0.1	1.1 ± 0.23	1.19 ± 0.19	1.2 ± 0.23	–	1.13 ± 0.18	0.99 ± 0.24	0.952 ± 0.08	1.33 ± 0.27	1.23 ± 0.048	1.33 ± 0.15	1.16 ± 0.072	0.773 ± 0.24	0.491 ± 0.065	0.0837 ± 0.006	0.069 ± 0.013
HCC70 BREAST	1.05 ± 0.079	1.1 ± 0.027	1.08 ± 0.074	1.06 ± 0.03	1.19 ± 0.091	1.18 ± 0.062	1.04 ± 0.076	1.03 ± 0.071	1.03 ± 0.065	1.02 ± 0.067	1.09 ± 0.033	1 ± 0.11	0.815 ± 0.062	0.281 ± 0.021	0.073 ± 0.0076	0.0593 ± 0.012
HMLE3 BREAST	1.06 ± 0.032	1.11 ± 0.062	1.2 ± 0.014	1.06 ± 0.05	1.12 ± 0.06	1.2 ± 0.12	1.09 ± 0.1	1.13 ± 0.1	0.955 ± 0.013	0.985 ± 0.066	1.04 ± 0.071	0.999 ± 0.02	0.992 ± 0.065	0.888 ± 0.061	0.448 ± 0.058	0.168 ± 0.026
HMT3552 BREAST	1.05 ± 0.062	1.02 ± 0.053	–	1 ± 0.042	1.15 ± 0.07	1.18 ± 0.061	1.18 ± 0.034	1 ± 0.076	1.05	1.02	0.977	1.01	0.542	0.142	0.069	0.072
HS578T BREAST	1.11 ± 0.14	0.963 ± 0.32	1.15 ± 0.17	1.01 ± 0.1	1.07 ± 0.062	1.24 ± 0.11	1.19 ± 0.19	1.21 ± 0.15	0.828 ± 0.085	0.84 ± 0.11	0.872 ± 0.087	0.782 ± 0.1	0.559 ± 0.091	0.354 ± 0.035	0.204 ± 0.0082	0.128 ± 0.0087
